IC50, solubility and solubility in water data for five molecules are collected here from patent US20110182850A1, “ORGANIC COMPOUNDS AND THEIR USES” (priority 2009, published 2011).

Data set [1] concerns the target T1, HCV NS3-4A serine protease (full-length NS3-4A protein, genotype 1a, strain HCV-1) (Hepatitis C virus genotype 1a, UniProt P26664).
T1 construct: using the full-length NS3-4A protein (genotype 1a, strain HCV-1)
As to the kind of experiment: HCV NS3-4A protease assay. The format is biochemical. Conditions: Protease IC50. The procedure: The inhibitory activity of certain compounds of Table A against HCV NS3-4A serine protease is determined in a homogenous assay using the full-length NS3-4A protein (genotype 1a, strain HCV-1) and a commercially available internally-quenched fluorogenic peptide substrate as described by Taliani, M., et al. 1996 Anal. Biochem. 240:60-67, which is incorporated by reference in its entirety.

A short description of data set [2]: Measurement of thermodynamic solubility. The note with it: for solubility at 24 h: thermodynamic from solid, read-out: solubility in water. The format is physicochemical. The procedure:
Thermodynamic solubility for the compounds of the invention listed in Table C is measured by a published literature procedure, e.g., Liping Zhou, et al., J. Pharm. Sci (2007) 96(11): 3052-3071.
The DMSO stocks of test compounds previously dissolved in 25 μL of DMSO (˜10 mM) in mini-prep vial (MPV: Whatman, with PVDF filter and 0.45 μm pore size) chamber were evaporated via a GeneVac HT-4X evaporator for approximately 1 hour, at the guard temperature of 30° C. An aliquot of 250 μL buffer solution (pH 1.0 or 6.8) was added into each MPV chamber containing powders reconstituted from DMSO stock solutions. The MPV filter plungers were pushed down into the chamber until the membrane of the filter plunger slightly touched the surface of the buffer to promote equilibrium between the two compartments and to minimize the adsorption due to non-specific binding of samples during the subsequent 24-hr incubation (at 600 RPM at room temperature). Immediately after the 24-hr incubation, the plungers were further pushed down to the bottom of the chambers. More solution was pushed through the membrane and entered the plunger compartment. The filter/chamber assemblies were then put on a shaker for another 30 minutes at 600 RPM. Afterwards, filtrates were further diluted (1:10) with 50/50 acetonitrile/water solvent followed by a thorough mixing process. Both plates with diluted and undiluted filtrates were analyzed by HPLC and quantified against the four-point standard dilution curve of the same test compound (5 μM, 35 μM, 65 μM and 100 μM, respectively). In the current study, solubility reflects the average of triplicate samples tested at each pH.

Setting [3] is: pH 1, simulated gastric fluid, pH of about 1.
Setting [4] is: pH 6.8, aqueous buffer, pH of about 6.8.

Like-named read-outs stand apart in the source and are kept apart here.

T1 sequence (P26664 1658-1711): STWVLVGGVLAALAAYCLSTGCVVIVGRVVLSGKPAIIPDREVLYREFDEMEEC
T1 sequence (P26664 1027-1657): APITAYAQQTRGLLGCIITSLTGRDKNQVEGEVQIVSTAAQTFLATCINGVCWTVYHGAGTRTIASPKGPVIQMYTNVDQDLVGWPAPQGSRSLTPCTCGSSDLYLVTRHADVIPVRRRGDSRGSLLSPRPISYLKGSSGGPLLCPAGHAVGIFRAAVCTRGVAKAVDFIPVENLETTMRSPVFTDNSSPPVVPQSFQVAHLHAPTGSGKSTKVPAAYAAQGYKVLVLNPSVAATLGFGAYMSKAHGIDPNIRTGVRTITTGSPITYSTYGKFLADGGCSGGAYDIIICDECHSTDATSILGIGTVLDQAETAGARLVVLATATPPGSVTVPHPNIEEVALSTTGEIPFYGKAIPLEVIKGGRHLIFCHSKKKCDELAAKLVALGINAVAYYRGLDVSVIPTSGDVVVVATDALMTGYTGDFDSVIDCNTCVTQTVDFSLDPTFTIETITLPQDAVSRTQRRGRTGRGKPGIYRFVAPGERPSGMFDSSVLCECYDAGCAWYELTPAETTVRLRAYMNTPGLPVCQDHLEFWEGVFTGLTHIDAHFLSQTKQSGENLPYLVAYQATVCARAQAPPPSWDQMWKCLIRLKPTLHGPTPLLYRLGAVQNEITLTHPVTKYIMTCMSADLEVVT

In data set [1], `C=C[C@@H]1C[C@]1(NC(=O)[C@@H]1C[C@@]2(CN1C(=O)[C@@H](NC(=O)[C@@H](NC(=O)[C@@H]1CCCCN1CC)C1CCCCC1)C(C)(C)C)C(C)(C)C21CCC1)C(=O)NS(=O)(=O)C1(CCC)CC1` [Compound 67, (5R,8S)-7-[(2S)-2-{[(2S)-2-cyclohexyl-2-({[(2S)-1-ethylpiperidin-2-yl]carbonyl}amino)acetyl]amino}-3,3-dimethylbutanoyl]-10,10-dimethyl-N-[(1R,2S)-1-{[(1-propylcyclopropyl)sulfonyl]carbamoyl}-2-vinylcyclopropyl]-7-azadispiro[3.0.4.1]decane-8-carboxamide] yielded an IC50 of 1.5 nM. For the same molecule, the solubility at 24 h in data set [2] (setting [3]) was not below 100 µM; in data set [2] (setting [4]), not below 30 µM.

On to `C=C[C@@H]1C[C@]1(NC(=O)[C@@H]1C[C@@]2(CN1C(=O)[C@@H](NC(=O)[C@@H](NC(=O)[C@@H]1CCCN1CC)C1CCCCC1)C(C)(C)C)C(C)(C)C21CCC1)C(=O)NS(=O)(=O)C1(CCC)CC1` [Compound 69, (5R,8S)-7-[(2S)-2-{[(2S)-2-cyclohexyl-2-({[(2S)-1-ethylpyrrolidin-2-yl]carbonyl}amino)acetyl]amino}-3,3-dimethylbutanoyl]-10,10-dimethyl-N-[(1R,2S)-1-{[(1-propylcyclopropyl)sulfonyl]carbamoyl}-2-vinylcyclopropyl]-7-azadispiro[3.0.4.1]decane-8-carboxamide], for which, in data set [1], the IC50 came out at 1.5 nM. For the same molecule, the solubility at 24 h is not below 100 µM in data set [2] (setting [3]) and not below 30 µM in data set [2] (setting [4]).

On to `C=C[C@@H]1C[C@]1(NC(=O)[C@@H]1C[C@@]2(CN1C(=O)[C@@H](NC(=O)[C@@H](NC(=O)[C@@H]1CCCN1CC)C1CCCCC1)C(C)(C)C)C(C)(C)C21CCC1)C(=O)NS(=O)(=O)C1(C)CC1` [Compound 71, (5R,8S)-7-[(2S)-2-{[(2S)-2-cyclohexyl-2-({[(2S)-1-ethylpyrrolidin-2-yl]carbonyl}amino)acetyl]amino}-3,3-dimethylbutanoyl]-10,10-dimethyl-N-[(1R,2S)-1-{[(1-methylcyclopropyl)sulfonyl]carbamoyl}-2-vinylcyclopropyl]-7-azadispiro[3.0.4.1]decane-8-carboxamide], for which the IC50 in data set [1] was found to be 0.3 nM. Further, the solubility at 24 h in data set [2] (setting [3]) was not below 100 µM; in data set [2] (setting [4]) it was not below 30 µM.

For `C=C[C@@H]1C[C@]1(NC(=O)[C@@H]1C[C@@]2(CN1C(=O)[C@@H](NC(=O)[C@@H](NC(=O)[C@H]1CCCCN1C(C)C)C1CCCCC1)C(C)(C)C)C(C)(C)C21CCC1)C(=O)NS(=O)(=O)C1(C)CC1` [Compound 74, (5R,8S)-7-[(2S)-2-{[(2S)-2-cyclohexyl-2-({[(2R)-1-isopropylpiperidin-2-yl]carbonyl}amino)acetyl]amino}-3,3-dimethylbutanoyl]-10,10-dimethyl-N-[(1R,2S)-1-{[(1-methylcyclopropyl)sulfonyl]carbamoyl}-2-vinylcyclopropyl]-7-azadispiro[3.0.4.1]decane-8-carboxamide], the concentration for half-maximal inhibition (IC50) in data set [1] came out at 0.8 nM. Moreover, the solubility at 24 h was not below 100 µM in data set [2] (setting [3]) and not below 30 µM in data set [2] (setting [4]).

As for “(5R,8S)-7-[(2S)-2-{[(2S)-2-cyclohexyl-2-({[(2S)-1-isopropylpiperidin-2-yl]carbonyl}amino)acetyl]amino}-3,3-dimethylbutanoyl]-N-{(1R,2S)-1-[(cyclopentylsulfonyl)carbamoyl]-2-vinylcyclopropyl}-10,10-dimethyl-7-azadispiro[3.0.4.1]decane-8-carboxamide [Compound 80]”, the solubility in water entry in data set [2] (pH 1) is given as “at least 100 micromolar”; in data set [2] (pH 6.8), “at least 30 micromolar”.
